Source: patent publication US11873288B2, “Inhibitors for soluble epoxide hydrolase (sEH) and fatty acid amide hydrolase (FAAH)” (The Regents of the University of California, priority 2016, dated 2024)

Key:
Type in all cases: biochemical
hsEH = biological target: T1, hsEH (Homo sapiens, UniProt P34913); assay: human sEH inhibition (hsEH IC50)
T1 sequence (P34913 1-555): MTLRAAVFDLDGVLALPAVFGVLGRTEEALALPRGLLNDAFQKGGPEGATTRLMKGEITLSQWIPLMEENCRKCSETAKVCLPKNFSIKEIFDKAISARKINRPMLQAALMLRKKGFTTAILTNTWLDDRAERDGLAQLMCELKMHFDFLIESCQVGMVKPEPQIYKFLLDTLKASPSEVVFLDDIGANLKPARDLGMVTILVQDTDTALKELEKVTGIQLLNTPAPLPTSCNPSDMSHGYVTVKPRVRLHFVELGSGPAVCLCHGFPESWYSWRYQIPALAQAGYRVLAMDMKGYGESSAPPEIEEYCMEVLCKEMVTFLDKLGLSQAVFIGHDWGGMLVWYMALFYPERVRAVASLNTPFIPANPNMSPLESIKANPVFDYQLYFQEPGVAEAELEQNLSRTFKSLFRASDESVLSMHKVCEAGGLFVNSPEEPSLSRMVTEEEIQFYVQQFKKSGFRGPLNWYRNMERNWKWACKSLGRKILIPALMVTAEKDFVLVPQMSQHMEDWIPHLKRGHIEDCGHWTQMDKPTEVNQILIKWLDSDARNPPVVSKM

hFAAH [1] = biological target: T2, hFAAH (Homo sapiens, UniProt O00519); assay: recombinant FAAH enzyme with fluorescent substrate OMP (hFAAH IC50, screen)
T2 construct: made in house
T2 sequence (O00519 1-579): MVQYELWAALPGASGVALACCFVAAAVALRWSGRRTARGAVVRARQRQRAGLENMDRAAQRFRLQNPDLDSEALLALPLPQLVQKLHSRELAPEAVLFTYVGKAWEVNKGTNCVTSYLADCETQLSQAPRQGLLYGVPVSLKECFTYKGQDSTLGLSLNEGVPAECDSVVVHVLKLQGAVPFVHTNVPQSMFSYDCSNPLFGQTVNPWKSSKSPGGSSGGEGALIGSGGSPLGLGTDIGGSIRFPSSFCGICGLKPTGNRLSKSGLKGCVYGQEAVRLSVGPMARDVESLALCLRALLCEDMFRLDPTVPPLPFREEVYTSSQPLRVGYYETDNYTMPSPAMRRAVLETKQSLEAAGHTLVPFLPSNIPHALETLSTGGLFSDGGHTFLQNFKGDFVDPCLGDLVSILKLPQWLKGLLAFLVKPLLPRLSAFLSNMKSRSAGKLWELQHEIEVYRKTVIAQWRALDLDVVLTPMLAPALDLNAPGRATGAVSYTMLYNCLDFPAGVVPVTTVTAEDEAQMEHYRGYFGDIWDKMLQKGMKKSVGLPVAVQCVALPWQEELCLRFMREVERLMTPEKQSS

hFAAH [2] = biological target: T2, hFAAH; assay: hFAAH inhibition kinetics (KD, k2)

SMILES | IC50 (hsEH) [nM] | IC50 (hFAAH [1]) [nM] | further results
O=C(Nc1ccccc1)N[C@H]1CC[C@H](Oc2ccc(C(=O)O)cc2)CC1 [Compound A-1, 4-((trans-4-(3-phenylureido)cyclohexyl)oxy)benzoic acid] | 30 |  | 
O=C(Nc1ccc(F)cc1)N[C@H]1CC[C@H](Oc2ccc(C(=O)O)cc2)CC1 [Compound A-2, 4-((trans-4-(3-(4-fluorophenyl)ureido)cyclohexyl)oxy)benzoic acid] | 18 |  | 
O=C(NCCCCOc1ccc(C(=O)O)cc1)Nc1ccc(OC(F)(F)F)cc1 [Compound A-6, 4-(4-(3-(4-(trifluoromethoxy)phenyl)ureido)butoxy)benzoic acid] | 15 |  | 
O=C(O)c1ccc(OC2CCN(C(=O)Nc3ccc(OC(F)(F)F)cc3)CC2)cc1 [Compound A-10, 4-((1-((4-(trifluoromethoxy)phenyl)carbamoyl)piperidin-4-yl)oxy)benzoic acid] | 8 |  | 
N#Cc1ccc(O[C@H]2CC[C@H](NC(=O)Nc3ccc(OC(F)(F)F)cc3)CC2)cc1 [Compound A-11] | 5 |  | 
COC(=O)c1ccc(O[C@H]2CC[C@H](NC(=O)Nc3ccc(OC(F)(F)F)cc3)CC2)cc1 [Compound A-12, methyl 4-((trans-4-(3-(4-(trifluoromethoxy)phenyl)ureido)cyclohexyl)oxy) benzoate] | 7 |  | 
CC(C)OC(=O)c1ccc(O[C@H]2CC[C@H](NC(=O)Nc3ccc(OC(F)(F)F)cc3)CC2)cc1 [Compound A-13, isopropyl 4-((trans-4-(3-(4-(trifluoromethoxy)phenyl)ureido)cyclohexyl)oxy)benzoate] | 5 |  | 
O=C(Nc1ccc(OC(F)(F)F)cc1)N[C@H]1CC[C@H](Oc2ccc(C(=O)NCCO)cc2)CC1 [Compound A-15, N-(2-hydroxyethyl)-trans-4-((−4-(3-(4-(trifluoromethoxy)phenyl)ureido)cyclohexyl)oxy)benzamide] | 2 |  | 
O=C(O)CNC(=O)c1ccc(O[C@H]2CC[C@H](NC(=O)Nc3ccc(OC(F)(F)F)cc3)CC2)cc1 [Compound A-16] | 2 |  | 
COC(=O)CNC(=O)c1ccc(O[C@H]2CC[C@H](NC(=O)Nc3ccc(OC(F)(F)F)cc3)CC2)cc1 [Compound A-17, methyl trans-(4-((4-(3-(4-(trifluoromethoxy)phenyl)ureido)cyclohexyl)oxy)benzoyl)glycinate] | 3 |  | 
NC(=O)c1ccc(O[C@H]2CC[C@H](NC(=O)Nc3ccc(OC(F)(F)F)cc3)CC2)cc1 [Compound A-19, trans-4-((−4-(3-(4-(trifluoromethoxy)phenyl)ureido)cyclohexyl)oxy) benzamide] | 2 |  | 
O=Cc1ccc(O[C@H]2CC[C@H](NC(=O)Nc3ccc(OC(F)(F)F)cc3)CC2)cc1 [Compound A-20, trans-1-(4-(4-formyl-phenoxy)cyclohexyl)-3-(4-(trifluoromethoxy)phenyl)urea] | 4 |  | 
COc1ccc(O[C@H]2CC[C@H](NC(=O)Nc3ccc(OC(F)(F)F)cc3)CC2)cc1 [Compound A-22] | 3 |  | 
O=C(Nc1ccc(OC(F)(F)F)cc1)N[C@H]1CC[C@H](Oc2ccc(CO)cc2)CC1 [Compound A-24, 1-(trans-4-(4-(hydroxymethyl)phenoxy)cyclohexyl)-3-(4-(trifluoromethoxy)phenyl)urea] | 3 |  | 
Cc1nnc(-c2ccc(O[C@H]3CC[C@H](NC(=O)Nc4ccc(OC(F)(F)F)cc4)CC3)cc2)o1 [Compound A-25, 1-(trans-4-(4-(5-methyl-1,3,4-oxadiazol-2-yl)phenoxy)cyclohexyl)-3-(4-(trifluoromethoxy)phenyl)urea] | 4 |  | 
O=C(Nc1ccc(OC(F)(F)F)cc1)N[C@H]1CC[C@H](Oc2ccc(C(=O)NCc3ccccc3)cc2)CC1 [Compound A-27, N-benzyl-trans-4-((−4-(3-(4-(trifluoromethoxy)phenyl)ureido)cyclohexyl)oxy)benzamide] | 5 |  | 
O=C(Nc1ccc(F)cc1)N1CCC(Cc2cnc3ccccc3c2)CC1 [Compound B-1, N-(4-fluorophenyl)-4-(quinolin-3-ylmethyl)piperidine-1-carboxamide] | 94 ± 42 | 88 | increase of activity/potency towards sEH (hsEH): 7 fold; decrease of activity/potency towards FAAH (hFAAH [1]; relative to PF-750): 4 fold
O=C(Nc1ccc(Cl)cc1)N1CCC(Cc2cnc3ccccc3c2)CC1 [Compound B-2, N-(4-chlorophenyl)-4-(quinolin-3-ylmethyl)piperidine-1-carboxamide] | 20 ± 4 | 62 | increase of activity/potency towards sEH (hsEH): 30 fold; decrease of activity/potency towards FAAH (hFAAH [1]; relative to PF-750): 3 fold
O=C(Nc1ccccc1F)N1CCC(Cc2cnc3ccccc3c2)CC1 [Compound B-3, N-(2-fluorophenyl)-4-(quinolin-3-ylmethyl)piperidine-1-carboxamide] | 800 ± 400 | 49 | increased potency towards FAAH (hFAAH [1]; relative to PF-750): 2.5 fold
O=C(Nc1ccc(OC(F)(F)F)cc1)N1CCC(Cc2cnc3ccccc3c2)CC1 [Compound B-4, 4-(quinolin-3-ylmethyl)-N-(4-(trifluoromethoxy)phenyl)piperidine-1-carboxamide] | 8 ± 1 | 390 | increase of activity/potency towards sEH (hsEH): 80 fold; decrease of activity/potency towards FAAH (hFAAH [1]; relative to PF-750): 20.5 fold
O=C(Nc1cccnc1)N1CCC(Cc2cnc3ccccc3c2)CC1 [Compound B-6, N-(pyridin-3-yl)-4-(quinolin-3-ylmethyl)piperidine-1-carboxamide] | 4700 ± 1800 | 14 | 
COc1ccc(NC(=O)N2CCC(Cc3ccc4ccccc4n3)CC2)cc1 [Compound B-7, N-(4-methoxyphenyl)-4-(quinolin-2-ylmethyl)piperidine-1-carboxamide] |  |  | Kd (hFAAH [2]): 100 ± 40 nM; hFAAH k2 (hFAAH [2]): 0.28 ± 0.04 min⁻¹
COc1ccc(NC(=O)N2CCC(Cc3cccc(Oc4ccc(C(F)(F)F)cn4)c3)CC2)cc1 [Compound B-9, N-(4-methoxyphenyl)-4-(3-((5-(trifluoromethyl)pyridin-2-yl)oxy)benzyl) piperidine-1-carboxamide] |  |  | increase in potency towards FAAH (hFAAH [1]; relative to B-5): 32 fold; Kd (hFAAH [2]): 0.7 ± 0.27 nM; hFAAH k2 (hFAAH [2]): 0.26 ± 0.03 min⁻¹
O=C(Nc1ccc(OC(F)(F)F)cc1)N1CCC(Cc2cccc(Oc3ccc(C(F)(F)F)cn3)c2)CC1 [Compound B-11, N-(4-(trifluoromethoxy)phenyl)-4-(3-((5-(trifluoromethyl)pyridin-2-yl)oxy)benzyl)piperidine-1-carboxamide] |  |  | hsEH IC50 (hsEH): single digit; hFAAH IC50 (hFAAH [1]): single digit
O=C(Nc1ccc(C(F)(F)F)cc1)N1CCC(Cc2cccc(Oc3ccc(C(F)(F)F)cn3)c2)CC1 [Compound B-13, N-(4-(trifluoromethyl)phenyl)-4-(3-((5-(trifluoromethyl)pyridin-2-yl)oxy)benzyl)piperidine-1-carboxamide] | 7 | 8 | 
O=C(Nc1ccc(C(F)(F)F)cn1)N1CCC(Cc2cccc(Oc3ccc(C(F)(F)F)cn3)c2)CC1 [Compound B-14, N-(5-(trifluoromethyl)pyridin-2-yl)-4-(3-((5-(trifluoromethyl)pyridin-2-yl)oxy)benzyl)piperidine-1-carboxamide] | 60 | 3 | 
O=C(Nc1ccc(C(F)(F)F)nc1)N1CCC(Cc2cccc(Oc3ccc(C(F)(F)F)cn3)c2)CC1 [Compound B-15, 4-(3-((5-(trifluoromethyl)pyridin-2-yl)oxy)benzyl)-N-(6-(trifluoromethyl)pyridin-3-yl)piperidine-1-carboxamide] | 70 | 24 | 
O=C(Nc1cccnn1)N1CCC(Cc2cccc(Oc3ccc(C(F)(F)F)cn3)c2)CC1 [Compound B-16, N-(pyridazin-3-yl)-4-(3-((5-(trifluoromethyl)pyridin-2-yl)oxy)benzyl)piperidine-1-carboxamide] | > 10000 | 0.5 | 
Cc1noc(NC(=O)N2CCC(Cc3cccc(Oc4ccc(C(F)(F)F)cn4)c3)CC2)c1C [Compound B-17] | 500 | 1 | 
O=C(Nc1ccc(C(F)(F)F)cc1F)N1CCC(Cc2cccc(Oc3ccc(C(F)(F)F)cn3)c2)CC1 [Compound B-18, N-(2-fluoro-4-(trifluoromethyl)phenyl)-4-(3-((5-(trifluoromethyl)pyridin-2-yl)oxy)benzyl)piperidine-1-carboxamide] | 9 | 3 | 
